Reference: ChEMBL document CHEMBL5325464, “Design, synthesis and evaluation the bioactivities of novel 1,3-dimethyl-6-amino-1H-indazole derivatives as anticancer agents” (Bioorg Med Chem, 2023)
The source made the active and inactive calls. No cut-off for these calls is given here.

Key:
FaDu [1] = assay: Cytotoxicity against human FaDu cells assessed as reduction of cell viability at 20 uM measured after 24 hrs by MTT assay; format: functional
FaDu [2] = assay: Cytotoxicity against human FaDu cells assessed as reduction of cell viability measured after 24 hrs by MTT assay; format: functional, cell-based
[3] = Cytotoxicity against human YD-15 cells assessed as reduction of cell viability at 50 uM measured after 24 hrs by MTT assay; format: functional
MCF7 = assay: Cytotoxicity against human MCF7 cells assessed as reduction of cell viability at 25 uM measured after 24 hrs by MTT assay; format: functional
[4] = biological target: T1, Indoleamine 2,3-dioxygenase 1 (Homo sapiens, UniProt P14902); assay: Inhibition of human IDO1 expressed in human FaDu cells at IC50 incubated for 24 hrs by ELISA assay; format: cell-based
Target sequence in this assay (P14902 whole entry, looked up): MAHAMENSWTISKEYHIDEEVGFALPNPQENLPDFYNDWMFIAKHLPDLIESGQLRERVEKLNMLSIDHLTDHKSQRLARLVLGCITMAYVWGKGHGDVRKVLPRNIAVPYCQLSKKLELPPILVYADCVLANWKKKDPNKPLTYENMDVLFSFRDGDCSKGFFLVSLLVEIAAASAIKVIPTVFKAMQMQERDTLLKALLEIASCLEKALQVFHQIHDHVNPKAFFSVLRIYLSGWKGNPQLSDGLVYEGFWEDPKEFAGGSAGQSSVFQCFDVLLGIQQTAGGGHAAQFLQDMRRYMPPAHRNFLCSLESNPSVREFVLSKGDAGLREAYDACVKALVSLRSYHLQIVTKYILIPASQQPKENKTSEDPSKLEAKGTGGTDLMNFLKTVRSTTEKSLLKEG

[5] = Cytotoxicity against human DPSC cells assessed as reduction of cell viability at 20 uM measured after 24 hrs by MTT assay; format: toxicity, cell-based
[6] = biological target: T1, Indoleamine 2,3-dioxygenase 1; assay: Inhibition of human recombinant IDO1 incubated for 1 hr by HPLC analysis
Target sequence in this assay (P14902 whole entry): as the sequence (P14902 whole entry, looked up) above

FaDu [7] = assay: Inhibition of cell migration in human FaDu cells measured after 24 hrs by wound healing assay; format: functional, cell-based; details: dose 1-3 µM
FaDu [8] = assay: Induction of apoptosis in human FaDu cells assessed as nuclear condensation upto 3 uM measured after 24 hrs by DAPI staining based fluorescence microscopic analysis; format: functional, cell-based
FaDu [9] = assay: Downregulation of MMP9 expression in human FaDu cells at 1 to 3 uM incubated for 24 hrs by Western blot analysis; format: functional, cell-based; details: dose 1-3 µM
[10] = biological target: T1, Indoleamine 2,3-dioxygenase 1; assay: Inhibition of human IDO1 expressed in human FaDu cells incubated for 24 hrs by Western blotting analysis; format: cell-based
Target sequence in this assay (P14902 whole entry, looked up): as above

FaDu [11] = assay: Induction of apoptosis in human FaDu cells assessed as nuclear fragmentation upto 3 uM measured after 24 hrs by DAPI staining based fluorescence microscopic analysis; format: functional, cell-based
[12] = Activation of ERK pathway in human FaDu cells assessed as decrease in JNK phosphorylation upto 3 uM measured after 24 hrs by Western blotting analysis; format: cell-based; details: filed as activator
[13] = biological target: T1, Indoleamine 2,3-dioxygenase 1; assay: Inhibition of human IDO1 expressed in human FaDu cells at 2.78 uM incubated for 24 hrs by ELISA assay relative to control; format: cell-based
Target sequence in this assay (P14902 whole entry, looked up): as above

FaDu [14] = assay: Induction of apoptosis in human FaDu cells assessed as activation of PARP level upto 3 uM measured after 24 hrs by Western blot analysis; format: functional, cell-based
[15] = Activation of ERK pathway in human FaDu cells assessed as effect on p38 phosphorylation upto 3 uM measured after 24 hrs by Western blotting analysis; format: cell-based
FaDu [16] = assay: Induction of apoptosis in human FaDu cells assessed as activation of cleaved caspase 3 level upto 3 uM measured after 24 hrs by Western blot analysis; format: functional, cell-based
[17] = Activation of ERK pathway in human FaDu cells assessed as increase in ERK phosphorylation upto 3 uM measured after 24 hrs by Western blotting analysis; format: cell-based; details: filed as activator

Row | Structure (SMILES) | Activity (FaDu [1]) | IC50 (FaDu [2]) | Activity [3] | Activity (MCF7) | IDO1 inhibition (qualitative) [4] | Activity [5] | further results
1 | Cc1nn(C)c2cc(NCc3ccc(Cl)cc3)ccc12 | 8.43% | 3.57 µM | 52.82% | 101.58% | Active | 84.13% | 
2 | Cc1nn(C)c2cc(NCc3ccc(O)cc3)ccc12 | 87.72% | > 50 µM | 98.59% | 100.39% |  | 94.7% | 
3 | COc1ccc(CNc2ccc3c(C)nn(C)c3c2)c(O)c1 | 84.68% | > 50 µM | 102.06% | 88.27% |  | 84.9% | 
4 | O=C(NNc1ccccc1)c1n[nH]c2cc(Br)ccc12 |  |  |  |  |  |  | IC50 [6]: 0.72 µM
5 | Cc1nn(C)c2cc(NCc3ccc(N(C)C)cc3)ccc12 | 93.5% | > 50 µM | 26.86% | 84.75% |  | 91.6% | 
6 | COc1cc(CNc2ccc3c(C)nn(C)c3c2)cc(OC)c1OC | 49.4% | 19.9 µM | 86.71% | 92.8% |  | 82.54% | 
7 | COc1ccc(CNc2ccc3c(C)nn(C)c3c2)cc1 | 10.4% | 6.67 µM | 67.1% | 102.24% | Active | 91.62% | 
8 | Cc1nn(C)c2cc(NCc3ccc([N+](=O)[O-])cc3)ccc12 | 7.77% | 11.2 µM | 94.88% | 98.33% | Active | 100.99% | 
9 | COc1ccc(CNc2ccc3c(C)nn(C)c3c2)cc1O | 7.26% | 6.19 µM | 99.01% | 95.71% | Active | 86.87% | 
10 | Cc1nn(C)c2cc(NCc3ccc(Br)cc3)ccc12 | 8.29% | 2.78 µM | 7.87% | 102.61% |  | 94.66% | inhibition (FaDu [7]): Dose-Dependent Effect; Activity (FaDu [8]): Active; Activity (FaDu [9]): Active; inhibition [10]: Dose-Dependent Effect; Activity (FaDu [11]): Active; Activity [12]: Active; inhibition [13]: 45.7%; Activity (FaDu [14]): Active; Activity [15]: inactive; Activity (FaDu [16]): Active; Activity [17]: Active
11 | COc1ccc(CNc2ccc3c(C)nn(C)c3c2)c(OC)c1OC | 7.8% | 1.87 µM | 101.41% | 104.07% | Active | 90.13% | 
12 | Cc1nn(C)c2cc(NCc3ccncc3)ccc12 | 86.72% | > 50 µM | 97.98% | 93.76% |  | 82.84% | 
13 | Cc1nn(C)c2cc(NCc3ccc(F)c(F)c3)ccc12 | 8.08% | 3.49 µM | 63.3% | 100.45% | Active | 90.4% | 
